From patent publication US20140171357A1, “VANCOMYCIN DERIVATIVES” (Seachald Pharmaceuticals, Inc., priority 2011, published 2014)
In brackets after ≈: the same amount, converted by molar mass.

Legend:
[1] = tested on: methicillin-susceptible S. aureus (MSSA, 22); test: MIC broth microdilution, MSSA; details: MSSA (22)
[2] = tested on: methicillin-resistant S. aureus (MRSA, 22); test: MIC broth microdilution, MRSA; details: MRSA (22)
[3] = tested on: vancomycin-intermediate S. aureus (VISA, 5); test: MIC broth microdilution, VISA
[4] = tested on: vancomycin-resistant S. aureus (VRSA, 6); test: MIC broth microdilution, VRSA
[5] = tested on: heterogeneous VISA (hVISA, 10); test: MIC broth microdilution, hVISA
S. pneumoniae (22) = test: MIC broth microdilution, S. pneumoniae; details: S. pneumoniae (22); MHB + lysed horse blood
[6] = tested on: Staphylococcus epidermidis (43 strains); test: MIC broth microdilution, S. epidermidis; details: S. epidermidis (43)
[7] = tested on: VanA vancomycin-resistant E. faecium (10); test: MIC broth microdilution, VanA E. faecium; details: E. faecium, VanA (10)
[8] = tested on: VanB vancomycin-resistant E. faecium (10); test: MIC broth microdilution, VanB E. faecium; details: E. faecium, VanB (10)
S. aureus ATCC 25923 = test: Neutropenic murine thigh infection model; details: for AUCc-t (AUC difference between control and treated animals): 24 h time kill
[9] = tested on: VanA vancomycin-resistant E. faecalis (11); test: MIC broth microdilution, VanA E. faecalis; details: for MIC 50% / MIC 90%: E. faecalis, VanA (11)
[10] = tested on: VanB vancomycin-resistant E. faecalis (12); test: MIC broth microdilution, VanB E. faecalis; details: E. faecalis, VanB (12)
[11] = tested on: Staphylococcus aureus (65 strains); test: MIC broth microdilution, S. aureus all isolates; details: S. aureus (65), all resistance subsets
[12] = tested on: β-hemolytic streptococci (23); test: MIC broth microdilution, β-hemolytic streptococci; details: for MIC 50% / MIC 90%: β-hemolytic streptococci (23), MHB + lysed horse blood
VanC enterococci (22) = test: MIC broth microdilution, vanC-carrying enterococci; details: VanC enterococci (22)
[13] = tested on: vancomycin-susceptible E. faecium (21); test: MIC broth microdilution, vancomycin-susceptible E. faecium; details: E. faecium, vancomycin-susceptible (21)
[14] = tested on: vancomycin-susceptible E. faecalis (23); test: MIC broth microdilution, vancomycin-susceptible E. faecalis; details: E. faecalis, vancomycin-susceptible (23)
[15] = 1 mg/kg single intraperitoneal dose
[16] = 4 mg/kg single intraperitoneal dose
[17] = 16 mg/kg single intraperitoneal dose

Compound | MIC 50% [1] [µg/mL] | MIC 90% [1] [µg/mL] | MIC 50% [2] [µg/mL] | MIC 90% [2] [µg/mL] | MIC 50% [3] [µg/mL] | MIC 50% [4] [µg/mL] | MIC 50% [5] [µg/mL] | MIC 90% [5] [µg/mL] | MIC 50% (S. pneumoniae (22)) [µg/mL] | MIC 90% (S. pneumoniae (22)) [µg/mL] | MIC 50% [6] [µg/mL] | MIC 90% [6] [µg/mL] | MIC 50% [7] [µg/mL] | MIC 90% [7] [µg/mL] | MIC 50% [8] [µg/mL] | MIC 90% [8] [µg/mL] | Max Kill (maximum decrease from initial infection level) (S. aureus ATCC 25923; [15]) [Log10 CFU/thigh] | AUCc-t (AUC difference between control and treated animals) (S. aureus ATCC 25923; [15]) | Max Kill (maximum decrease from initial infection level) (S. aureus ATCC 25923; [16]) [Log10 CFU/thigh] | AUCc-t (AUC difference between control and treated animals) (S. aureus ATCC 25923; [16]) | also measured
CNC(CC(C)C)C(=O)NC1C(=O)NC(CC(N)=O)C(=O)NC2C(=O)NC3C(=O)NC(C(=O)NC(C(=O)O)c4cc(O)c(CNCCOCCOCC[N+](C)(C)C)c(O)c4-c4cc3ccc4O)C(O)c3ccc(c(Cl)c3)Oc3cc2cc(c3OC2OC(CO)C(O)C(O)C2OC2CC(C)(NCc3ccc(-c4ccc(Cl)cc4)cc3)C(O)C(C)O2)Oc2ccc(cc2Cl)C1O (stereo not shown) [Compound 13] | 0.12 | 0.25 | 0.12 | 0.12 | 0.5 | 8 | 0.12 | 0.12 | 0.06 | 0.12 | 0.12 | 0.12 | 2 | 4 | 0.12 | 0.12 | 0.9 | 12.6 (Log10 CFU/thigh)/hr | 0.28 | 20.6 (Log10 CFU/thigh)/hr | Max Kill (maximum decrease from initial infection level) (S. aureus ATCC 25923; [17]): 0.02 Log10 CFU/thigh; AUCc-t (AUC difference between control and treated animals) (S. aureus ATCC 25923; [17]): 29.5 (Log10 CFU/thigh)/hr; MIC 50% [9]: 8 µg/mL; MIC 90% [9]: 16 µg/mL; MIC 50% [10]: 0.25 µg/mL; MIC 90% [10]: 0.5 µg/mL; MIC 50% [11]: 0.12 µg/mL; MIC 90% [11]: 0.5 µg/mL; MIC 50% [12]: 0.06 µg/mL; MIC 90% [12]: 0.06 µg/mL; MIC 50% (VanC enterococci (22)): 0.25 µg/mL; MIC 90% (VanC enterococci (22)): 1 µg/mL; MIC 50% [13]: 0.12 µg/mL; MIC 90% [13]: 0.12 µg/mL; MIC 50% [14]: 0.25 µg/mL; MIC 90% [14]: 0.25 µg/mL
CNC(CC(C)C)C(=O)NC1C(=O)NC(CC(N)=O)C(=O)NC2C(=O)NC3C(=O)NC(C(=O)NC(C(=O)O)c4cc(O)c(CNCCOCCOCCOCCN(C)C)c(O)c4-c4cc3ccc4O)C(O)c3ccc(c(Cl)c3)Oc3cc2cc(c3OC2OC(CO)C(O)C(O)C2OC2CC(C)(NCc3ccc(-c4ccc(Cl)cc4)cc3)C(O)C(C)O2)Oc2ccc(cc2Cl)C1O (stereo not shown) [Compound 14] | 0.12 (≈ 0.0638 µM) | 0.25 (≈ 0.133 µM) | 0.12 (≈ 0.0638 µM) | 0.12 (≈ 0.0638 µM) | 0.5 (≈ 0.266 µM) | 8 (≈ 4.25 µM) | 0.12 (≈ 0.0638 µM) | 0.12 (≈ 0.0638 µM) | 0.06 | 0.12 | 0.12 (≈ 0.0638 µM) | 0.12 (≈ 0.0638 µM) | 2 (≈ 1.06 µM) | 4 (≈ 2.13 µM) | 0.12 (≈ 0.0638 µM) | 0.12 (≈ 0.0638 µM) | 0.83 | 11.4 (Log10 CFU/thigh)/hr | 0.19 | 19.4 (Log10 CFU/thigh)/hr | Max Kill (maximum decrease from initial infection level) (S. aureus ATCC 25923; [17]): 0.03 Log10 CFU/thigh; AUCc-t (AUC difference between control and treated animals) (S. aureus ATCC 25923; [17]): 36.1 (Log10 CFU/thigh)/hr; MIC 50% [9]: 8 µg/mL (≈ 4.25 µM); MIC 90% [9]: 16 µg/mL (≈ 8.5 µM); MIC 50% [10]: 0.25 µg/mL (≈ 0.133 µM); MIC 90% [10]: 0.25 µg/mL (≈ 0.133 µM); MIC 50% [11]: 0.12 µg/mL (≈ 0.0638 µM); MIC 90% [11]: 0.5 µg/mL (≈ 0.266 µM); MIC 50% [12]: 0.06 µg/mL; MIC 90% [12]: 0.06 µg/mL; MIC 50% (VanC enterococci (22)): 0.25 µg/mL (≈ 0.133 µM); MIC 90% (VanC enterococci (22)): 0.5 µg/mL (≈ 0.266 µM); MIC 50% [13]: 0.12 µg/mL (≈ 0.0638 µM); MIC 90% [13]: 0.12 µg/mL (≈ 0.0638 µM); MIC 50% [14]: 0.25 µg/mL (≈ 0.133 µM); MIC 90% [14]: 0.25 µg/mL (≈ 0.133 µM)
CNC(CC(C)C)C(=O)NC1C(=O)NC(CC(N)=O)C(=O)NC2C(=O)NC3C(=O)NC(C(=O)NC(C(=O)NCCOCCOCCN)c4cc(O)cc(O)c4-c4cc3ccc4O)C(O)c3ccc(c(Cl)c3)Oc3cc2cc(c3OC2OC(CO)C(O)C(O)C2OC2CC(C)(NCc3ccc(OCc4ccc(Cl)c(Cl)c4)cc3)C(O)C(C)O2)Oc2ccc(cc2Cl)C1O (stereo not shown) [Compound 27] | 0.06 (≈ 0.0325 µM) | 0.06 (≈ 0.0325 µM) | 0.06 (≈ 0.0325 µM) | 0.06 (≈ 0.0325 µM) | 0.12 (≈ 0.0651 µM) | 2 (≈ 1.08 µM) | 0.06 (≈ 0.0325 µM) | 0.06 (≈ 0.0325 µM) | 0.03 | 0.06 | 0.03 (≈ 0.0163 µM) | 0.03 (≈ 0.0163 µM) | 0.5 (≈ 0.271 µM) | 1 (≈ 0.542 µM) | 0.03 (≈ 0.0163 µM) | 0.03 (≈ 0.0163 µM) | 0.45 | 19.8 (Log10 CFU/thigh)/hr | −0.008 | 18.8 (Log10 CFU/thigh)/hr | Max Kill (maximum decrease from initial infection level) (S. aureus ATCC 25923; [17]): −0.35 Log10 CFU/thigh; AUCc-t (AUC difference between control and treated animals) (S. aureus ATCC 25923; [17]): 36.9 (Log10 CFU/thigh)/hr; MIC 50% [9]: 2 µg/mL (≈ 1.08 µM); MIC 90% [9]: 2 µg/mL (≈ 1.08 µM); fold higher MIC50/MIC90 against VanA-type E. faecalis compared with wildtype (susceptible) strains ([9]; VanA vs wildtype E. faecalis): 16 fold; concentration inhibiting all strains ([9]; VanA-type E. faecalis): ≤ 2 µg/mL; MIC 50% [10]: 0.12 µg/mL (≈ 0.0651 µM); MIC 90% [10]: 0.12 µg/mL (≈ 0.0651 µM); MIC 50% [11]: 0.06 µg/mL (≈ 0.0325 µM); MIC 90% [11]: 0.25 µg/mL (≈ 0.136 µM); MIC 50% [12]: 0.06 µg/mL; MIC 90% [12]: 0.12 µg/mL; MIC 50% (VanC enterococci (22)): 0.06 µg/mL (≈ 0.0325 µM); MIC 90% (VanC enterococci (22)): 0.25 µg/mL (≈ 0.136 µM); MIC 50% [13]: 0.03 µg/mL (≈ 0.0163 µM); MIC 90% [13]: 0.06 µg/mL (≈ 0.0325 µM); MIC 50% [14]: 0.12 µg/mL (≈ 0.0651 µM); MIC 90% [14]: 0.12 µg/mL (≈ 0.0651 µM)
CNC(CC(C)C)C(=O)NC1C(=O)NC(CC(N)=O)C(=O)NC2C(=O)NC3C(=O)NC(C(=O)NC(C(=O)O)c4cc(O)c(CNCCOCCOCCN)c(O)c4-c4cc3ccc4O)C(O)c3ccc(c(Cl)c3)Oc3cc2cc(c3OC2OC(CO)C(O)C(O)C2OC2CC(C)(NCc3ccc(OCc4ccc(Cl)c(Cl)c4)cc3)C(O)C(C)O2)Oc2ccc(cc2Cl)C1O (stereo not shown) [Compound 28] | 0.06 (≈ 0.032 µM) | 0.06 (≈ 0.032 µM) | 0.06 (≈ 0.032 µM) | 0.06 (≈ 0.032 µM) | 0.12 (≈ 0.064 µM) | 2 (≈ 1.07 µM) | 0.06 (≈ 0.032 µM) | 0.06 (≈ 0.032 µM) | 0.03 | 0.06 | 0.03 (≈ 0.016 µM) | 0.03 (≈ 0.016 µM) | 0.5 (≈ 0.267 µM) | 1 (≈ 0.533 µM) | 0.03 (≈ 0.016 µM) | 0.06 (≈ 0.032 µM) | 0.61 | 19.1 (Log10 CFU/thigh)/hr | 0.75 | 17.3 (Log10 CFU/thigh)/hr | Max Kill (maximum decrease from initial infection level) (S. aureus ATCC 25923; [17]): −0.02 Log10 CFU/thigh; AUCc-t (AUC difference between control and treated animals) (S. aureus ATCC 25923; [17]): 38.2 (Log10 CFU/thigh)/hr; MIC 50% [9]: 2 µg/mL (≈ 1.07 µM); MIC 90% [9]: 4 µg/mL (≈ 2.13 µM); MIC 50% [10]: 0.12 µg/mL (≈ 0.064 µM); MIC 90% [10]: 0.12 µg/mL (≈ 0.064 µM); MIC 50% [11]: 0.06 µg/mL (≈ 0.032 µM); MIC 90% [11]: 0.12 µg/mL (≈ 0.064 µM); fold more potent than teicoplanin and daptomycin ([12]; β-hemolytic streptococci): two- to four; fold more potent than vancomycin ([12]; β-hemolytic streptococci): four- to eight; MIC 50% [12]: 0.03 µg/mL; MIC 90% [12]: 0.06 µg/mL; MIC 50% (VanC enterococci (22)): 0.06 µg/mL (≈ 0.032 µM); MIC 90% (VanC enterococci (22)): 0.25 µg/mL (≈ 0.133 µM); MIC 50% [13]: 0.03 µg/mL (≈ 0.016 µM); MIC 90% [13]: 0.06 µg/mL (≈ 0.032 µM); MIC 50% [14]: 0.06 µg/mL (≈ 0.032 µM); MIC 90% [14]: 0.12 µg/mL (≈ 0.064 µM)
